In patent US20220306695A1, “COMPSTATIN ANALOGUES AND THEIR MEDICAL USES” (priority 2019, published 2022) one finds IC50 data, which are given here for 13 compounds.

In the assay the test system is classical complement pathway. Put plainly: In vitro haemolysis assay (inhibition of classical complement pathway). In kind it is cell-based, human. The method, boiled down: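 Serially diluted compound (9 points) was preincubated 15 min at room temperature with diluted human serum, titrated per batch to give 70-90% maximal haemolysis, in Tris/casein buffer pH 7.4 with Mg2+/Ca2+. Antibody-sensitized sheep erythrocytes were then added for 30 min at 37° C, and the reaction was stopped with EDTA. Haemolysis was read at A405, with IC50 from 4PL fit.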

Where [1] appears, read: Table 3, human serum, sensitized sheep red blood cells, read-out: IC50[nM], in vitro analysis of inhibition of hemolysis.

Like-named read-outs stand apart in the source and are kept apart here. Starred links: 1 amine or outer side, 2 acyl side, 3 side chain; linkers in the order of their positions; H or OH if unused. Positions of bridges follow the written chain, without caps; N, C: chain ends. Non-standard residues stand in square brackets, D forms with d. Residues, ends and D or L forms follow the SMILES beside them. Groups on a side chain read outwards from the residue. *: point of attachment. Trp(1-Me) = Cn1cc(C[C@H](N)C(=O)O)c2ccccc21; Abu(4-yl) = O=C([C@H](CC[*:3])N[*:1])[*:2]; C18 diacid = O=C(O)CCCCCCCCCCCCCCCCC(=O)*; C16 diacid = O=C(O)CCCCCCCCCCCCCCC(=O)*; γGlu = O=C(O)[C@H](CCC(=O)[*:2])N[*:1]; AEEA = NCCOCCOCC(=O)O; Sar = CNCC(=O)O

Usually IC50 stands for the concentration at which inhibition is half-maximal. As for `CC[C@H](C)[C@@H]1NC(=O)[C@@H](NC(=O)[C@H](Cc2ccccc2)NC(=O)[C@H](CCC(=O)O)NC(=O)[C@H](CO)NC(C)=O)CSCC[C@@H](C(=O)N(C)CC(=O)N[C@@H](CCC(=O)O)C(=O)NCC(=O)N[C@@H](C)C(=O)N[C@@H](CCCCNC(=O)COCCOCCNC(=O)CC[C@H](NC(=O)COCCOCCNC(=O)CNC(=O)CC[C@H](NC(=O)CCCCCCCCCCCCCCCCC(=O)O)C(=O)O)C(=O)O)C(N)=O)NC(=O)[C@H](CCCNC(=N)N)NC(=O)[C@H](Cc2c[nH]cn2)NC(=O)[C@H](CCC(=O)O)NC(=O)CNC(=O)[C@H](Cc2c[nH]c3ccccc23)NC(=O)[C@H](CC(=O)O)NC(=O)[C@H](CCC(N)=O)NC(=O)[C@H](Cc2cn(C)c3ccccc23)NC1=O` [Compound 154, Ac-SEFA(1)I[1-Me-Trp]QDWGEHRhC(1)[Sar]EGA-K([17-carboxy-heptadecanoyl][γGlu]G[Peg3][γGlu][Peg3])-NH2] (Ac-SEFCI[Trp(1-Me)]QDWGEHR[Abu(4-yl)][Sar]EGAK([AEEA-γGlu-AEEA-Gly-γGlu-C18 diacid])-NH2; thioether 4-14), the 50% inhibitory concentration (IC50) under setting [1] was less than 100 nM.

As to `CC[C@H](C)[C@H](NC(C)=O)C(=O)N[C@H]1CSSC[C@@H](C(=O)N[C@H](C(=O)N[C@@H](CCC(=O)O)C(=O)NCC(=O)N[C@@H](CCCCNC(=O)COCCOCCNC(=O)COCCOCCNC(=O)CC[C@H](NC(=O)CCCCCCCCCCCCCCC(=O)O)C(=O)O)C(N)=O)[C@@H](C)O)NC(=O)[C@H](CCCNC(=N)N)NC(=O)[C@H](Cc2c[nH]cn2)NC(=O)[C@H](CCC(=O)O)NC(=O)CNC(=O)[C@H](Cc2c[nH]c3ccccc23)NC(=O)[C@H](CC(=O)O)NC(=O)[C@H](CCC(N)=O)NC(=O)[C@H](Cc2c[nH]c3ccccc23)NC(=O)[C@H]([C@@H](C)CC)NC1=O` [Compound 93] (Ac-ICIWQDWGEHRCTEGK([AEEA-AEEA-γGlu-C16 diacid])-NH2; disulfide 2-12), the IC50 under setting [1] is less than 500 nM.

Consider `CC[C@H](C)[C@@H]1NC(=O)[C@@H](NC(=O)[C@H](Cc2ccccc2)NC(=O)[C@H](C)NC(=O)[C@H](CO)NC(=O)CNC(=O)[C@H](CCC(=O)O)NC(C)=O)CSSC[C@@H](C(=O)N[C@@H](CCC(=O)O)C(=O)NCC(=O)N[C@@H](CCC(=O)O)C(N)=O)NC(=O)[C@H](CCCNC(=N)N)NC(=O)[C@H](Cc2c[nH]cn2)NC(=O)[C@H](CCC(=O)O)NC(=O)CNC(=O)[C@H](Cc2c[nH]c3ccccc23)NC(=O)[C@H](CC(=O)O)NC(=O)[C@H](CCC(N)=O)NC(=O)[C@H](Cc2cn(C)c3ccccc23)NC1=O` [Compound 58] (Ac-EGSAFCI[Trp(1-Me)]QDWGEHRCEGE-NH2; disulfide 6-16), for which the IC50 under setting [1] is less than 100 nM.

As for `CC[C@H](C)[C@@H]1NC(=O)[C@@H](NC(=O)[C@H](Cc2ccccc2)NC(=O)[C@H](CCC(=O)O)NC(=O)[C@H](CO)NC(C)=O)CCSC[C@@H](C(=O)N(C)CC(=O)N[C@@H](CCC(=O)O)C(=O)NCC(=O)N[C@@H](CCC(=O)O)C(=O)NCCOCCOCC(=O)NCCOCCOCC(=O)N[C@@H](CCCCNC(=O)CC[C@H](NC(=O)CNC(=O)CC[C@H](NC(=O)CCCCCCCCCCCCCCCCC(=O)O)C(=O)O)C(=O)O)C(N)=O)NC(=O)[C@H](CCCNC(=N)N)NC(=O)[C@H](Cc2c[nH]cn2)NC(=O)[C@H](CCC(=O)O)NC(=O)CNC(=O)[C@H](Cc2c[nH]c3ccccc23)NC(=O)[C@H](CCC(=O)O)NC(=O)[C@H](CCC(N)=O)NC(=O)[C@H](Cc2cn(C)c3ccccc23)NC1=O` [Compound 167] (Ac-SEF[Abu(4-yl)]I[Trp(1-Me)]QEWGEHRC[Sar]EGE[AEEA][AEEA]K([γGlu-Gly-γGlu-C18 diacid])-NH2; thioether 4-14), under setting [1], the IC50 was less than 500 nM.

As for `CC[C@H](C)[C@H](NC(C)=O)C(=O)N[C@H]1CSSC[C@@H](C(=O)N[C@H](C(N)=O)[C@@H](C)O)NC(=O)[C@H](CCCNC(=N)N)NC(=O)[C@H](Cc2c[nH]cn2)NC(=O)[C@H](CCCCN)NC(=O)CNC(=O)[C@H](Cc2c[nH]c3ccccc23)NC(=O)[C@H](CC(=O)O)NC(=O)[C@H](CCC(N)=O)NC(=O)[C@H](Cc2c[nH]c3ccccc23)NC(=O)[C@H]([C@@H](C)CC)NC1=O` [Compound 5] (Ac-ICIWQDWGKHRCT-NH2; disulfide 2-12), the IC50 under setting [1] was less than 250 nM.

`CC[C@H](C)[C@H](NC(C)=O)C(=O)N[C@H]1CSSC[C@@H](C(=O)N[C@H](C(=O)N[C@@H](CCC(=O)O)C(N)=O)[C@@H](C)O)NC(=O)[C@H](CCCNC(=N)N)NC(=O)[C@H](Cc2c[nH]cn2)NC(=O)[C@H](CCC(=O)O)NC(=O)CNC(=O)[C@H](Cc2c[nH]c3ccccc23)NC(=O)[C@H](CC(=O)O)NC(=O)[C@H](CCC(N)=O)NC(=O)[C@H](Cc2c[nH]c3ccccc23)NC(=O)[C@H]([C@@H](C)CC)NC1=O` [Compound 26] (Ac-ICIWQDWGEHRCTE-NH2; disulfide 2-12): under setting [1], the half-maximal inhibitory concentration (IC50) is less than 100 nM.

On to `CC[C@H](C)[C@@H]1NC(=O)[C@@H](NC(=O)[C@H](Cc2ccccc2)NC(=O)[C@H](CCC(=O)O)NC(=O)[C@H](CO)NC(C)=O)CSSC[C@@H](C(=O)N(C)CC(=O)N[C@@H](CCC(=O)O)C(=O)NCC(=O)N[C@@H](CCC(=O)O)C(=O)NCCOCCOCC(=O)NCCOCCOCC(=O)N[C@@H](CCCCNC(=O)CC[C@H](NC(=O)CNC(=O)CC[C@H](NC(=O)CCCCCCCCCCCCCCC(=O)O)C(=O)O)C(=O)O)C(N)=O)NC(=O)[C@H](CCCNC(=N)N)NC(=O)[C@H](Cc2c[nH]cn2)NC(=O)[C@H](CCC(=O)O)NC(=O)CNC(=O)[C@H](Cc2c[nH]c3ccccc23)NC(=O)[C@H](CC(=O)O)NC(=O)[C@H](CCC(N)=O)NC(=O)[C@H](Cc2cn(C)c3ccccc23)NC1=O` [Compound 127] (Ac-SEFCI[Trp(1-Me)]QDWGEHRC[Sar]EGE[AEEA][AEEA]K([γGlu-Gly-γGlu-C16 diacid])-NH2; disulfide 4-14), for which the IC50 under setting [1] was less than 100 nM.

Regarding `CC[C@H](C)[C@@H]1NC(=O)[C@@H](NC(=O)[C@H](Cc2ccc(O)cc2)NC(C)=O)CSSC[C@@H](C(=O)N[C@H](C(N)=O)[C@@H](C)O)NC(=O)[C@H](CCCNC(=N)N)NC(=O)[C@H](Cc2c[nH]cn2)NC(=O)[C@H](CCC(=O)O)NC(=O)CNC(=O)[C@H](Cc2c[nH]c3ccccc23)NC(=O)[C@H](CC(=O)O)NC(=O)[C@H](CCC(N)=O)NC(=O)[C@H](Cc2c[nH]c3ccccc23)NC1=O` [Compound 9] (Ac-YCIWQDWGEHRCT-NH2; disulfide 2-12), under setting [1], the IC50 was less than 100 nM.

Regarding `CC[C@H](C)[C@H](NC(=O)[C@H](C)NC(=O)[C@H](CO)NC(=O)CNC(=O)[C@H](CCCCNC(=O)COCCOCCNC(=O)COCCOCCNC(=O)CC[C@H](NC(=O)CCCCCCCCCCCCCCC(=O)O)C(=O)O)NC(C)=O)C(=O)N[C@H]1CSSC[C@@H](C(=O)N[C@H](C(=O)N[C@@H](CCC(=O)O)C(=O)NCC(=O)N[C@@H](CCC(=O)O)C(N)=O)[C@@H](C)O)NC(=O)[C@H](CCCNC(=N)N)NC(=O)[C@H](Cc2c[nH]cn2)NC(=O)[C@H](CCC(=O)O)NC(=O)CNC(=O)[C@H](Cc2c[nH]c3ccccc23)NC(=O)[C@H](CC(=O)O)NC(=O)[C@H](CCC(N)=O)NC(=O)[C@H](Cc2c[nH]c3ccccc23)NC(=O)[C@H]([C@@H](C)CC)NC1=O` [Compound 100] (Ac-K([AEEA-AEEA-γGlu-C16 diacid])GSAICIWQDWGEHRCTEGE-NH2; disulfide 6-16), the half-maximal inhibitory concentration (IC50) under setting [1] was less than 500 nM.

Regarding `CC[C@H](C)[C@@H]1NC(=O)[C@@H](NC(=O)[C@H](Cc2ccccc2)NC(=O)[C@H](CCC(=O)O)NC(=O)[C@H](CO)NC(C)=O)CSSC[C@@H](C(=O)N(C)CC(=O)N[C@@H](CCC(=O)O)C(=O)NCC(=O)N[C@@H](CCC(=O)O)C(=O)NCC(=O)NCC(=O)NCC(=O)N[C@@H](CCCCNC(=O)CC[C@H](NC(=O)CNC(=O)CC[C@H](NC(=O)CCCCCCCCCCCCCCCCC(=O)O)C(=O)O)C(=O)O)C(N)=O)NC(=O)[C@H](CCCNC(=N)N)NC(=O)[C@H](Cc2c[nH]cn2)NC(=O)[C@H](CCC(=O)O)NC(=O)CNC(=O)[C@H](Cc2c[nH]c3ccccc23)NC(=O)[C@H](CC(=O)O)NC(=O)[C@H](CCC(N)=O)NC(=O)[C@H](Cc2cn(C)c3ccccc23)NC1=O` [Compound 129] (Ac-SEFCI[Trp(1-Me)]QDWGEHRC[Sar]EGEGGGK([γGlu-Gly-γGlu-C18 diacid])-NH2; disulfide 4-14), the half-maximal inhibitory concentration (IC50) under setting [1] was less than 100 nM.

Consider `CC[C@H](C)[C@@H]1NC(=O)[C@@H](NC(=O)CN(C)C(=O)[C@H](CCC(=O)O)NC(=O)[C@H](CO)NC(C)=O)CSSC[C@@H](C(=O)N(C)CC(=O)N[C@@H](CCC(=O)O)C(=O)N[C@@H](C)C(N)=O)NC(=O)[C@H](CCCNC(=N)N)NC(=O)[C@H](Cc2c[nH]cn2)NC(=O)[C@H](CCC(=O)O)NC(=O)CNC(=O)[C@H](Cc2c[nH]c3ccccc23)NC(=O)[C@H](CCC(=O)O)NC(=O)[C@H](CCC(N)=O)NC(=O)[C@H](Cc2cn(C)c3ccccc23)NC1=O` [Compound 90] (Ac-SE[Sar]CI[Trp(1-Me)]QEWGEHRC[Sar]EA-NH2; disulfide 4-14), for which the IC50 under setting [1] was less than 250 nM.

`CC[C@H](C)[C@@H]1NC(=O)[C@@H](NC(=O)[C@H](Cc2ccccc2)NC(=O)[C@H](CCC(=O)O)NC(=O)[C@H](CO)NC(C)=O)CSSC[C@@H](C(=O)N(C)CC(=O)N[C@@H](CCC(=O)O)C(=O)N[C@@H](C)C(N)=O)NC(=O)[C@H](CCCNC(=N)N)NC(=O)[C@H](Cc2c[nH]cn2)NC(=O)[C@H](CCC(=O)O)NC(=O)CNC(=O)[C@H](Cc2c[nH]c3ccccc23)NC(=O)[C@H](CCC(=O)O)NC(=O)[C@H](CCC(N)=O)NC(=O)[C@H](Cc2cn(C)c3ccccc23)NC1=O` [Compound 83] (Ac-SEFCI[Trp(1-Me)]QEWGEHRC[Sar]EA-NH2; disulfide 4-14): the half-inhibitory concentration (IC50) under setting [1] was less than 100 nM.

As for `CC[C@H](C)[C@H](NC(C)=O)C(=O)N[C@H]1CSSC[C@@H](C(=O)N[C@H](C(=O)NCC(=O)N[C@@H](C)C(=O)N[C@@H](CCC(=O)O)C(=O)N[C@@H](CO)C(N)=O)[C@@H](C)O)NC(=O)[C@H](CCCNC(=N)N)NC(=O)[C@H](Cc2c[nH]cn2)NC(=O)[C@H](CCC(=O)O)NC(=O)CNC(=O)[C@H](Cc2c[nH]c3ccccc23)NC(=O)[C@H](CC(=O)O)NC(=O)[C@H](CCC(N)=O)NC(=O)[C@H](Cc2c[nH]c3ccccc23)NC(=O)[C@H](C(C)C)NC1=O` [D, reference compound] (Ac-ICVWQDWGEHRCTGAES-NH2; disulfide 2-12), under “Table 4, valine 3 versus isoleucine 3 pairs, read-out: CP hemolysis IC50”, the IC50 was 210 nM.
